{"source": "patent US20050019341A1", "about": "“Tumor antigen” (priority 2001, published 2005)", "key": {"[1]": {"system": "PBMC of HLA-A2+ brain tumor patients; targets T2 cells pulsed with corresponding peptide and/or HLA-A2+ tumor cells", "assay": "Induction of CTL by peptides from PBMC of brain tumor patients (Example 5): IFN-γ production", "assay_type": "cell-based, human", "conditions": "Patient Case 4 (brain tumor)", "description": "(§1) The PBMC were prepared by methods of the art from the blood of three primary brain tumor patients and one metastatic brain tumor patient. The PBMC obtained were stimulated by incubation with each peptide in the same way as in Example 4, and were cultured by the same method as in Example 3 using T2 cells that were pulsed with each corresponding peptide or KNS60 tumor cells as target cells, followed by measuring the quantity of IFN-γ produced. When T2 cells that were pulsed with the peptides were used as target cells, the PBMC was paired with the T2 cells in such a way that the peptide used to stimulate PBMC and the peptide pulsed to T2 cells were the same."}, "[2]": {"system": "immunoglobulin E (IgE)", "assay": "ELISA for peptide-specific IgE in serum", "assay_type": "binding, human", "conditions": "serum of MS patients", "description": "The presence of immunoglobulin E (IgE) and immunoglobulin G (IgG) that specifically recognize P102 (SEQ ID NO: 2), P103 (SEQ ID NO: 3), P104 (SEQ ID NO: 4), or P106 (SEQ ID NO: 6) in the serum of a multiple sclerosis patient, a brain tumor patient, and a healthy subject was measured by the enzyme-linked immunosorbent assay (ELISA).\nEach aforementioned peptide (20 μg/well) was immobilized in a 96-well Nunc Covalink flat-bottomed plate (Fisher Scientific), using disuccinimidyl suberate (PIERCE), following the product instructions. This plate was blocked with Block Ace (Yukijirushi) and washed with 0.05% Tween20-PBS; a serum or blood plasma sample was diluted with 0.05% Tween20-Block Ace and added to the plate at 100 μl/well. After incubation for 2 hours at 37° C., the plate was washed with 0.05% Tween20-PBS and further incubated for 2 hours at 37° C. with rabbit anti-human IgE antibody (E chain-specific), anti-human IgG antibody (y chain-specific) (DAKO), or anti-human IgG subclass-specific antibody (Zymed Laboratories), each of which were diluted to 1:1000. […] Thereafter, the reaction was stopped by adding 1 M phosphoric acid, and the optical density (OD) at 450 nm was measured. In so doing, peptides derived from EBV, HIV, SART2 (JP-11-318455), or SART3 (Cancer Research, 1999, Volume 59, pp. […]) were used as controls and measured similarly. […]"}, "[3]": {"system": "OK-CTL (HLA-A2-restricted cytotoxic T-lymphocyte strain)", "assay": "CTL activation test: T2 cells pulsed with peptide co-cultured with OK-CTL, IFN-γ by ELISA", "assay_type": "cell-based, human", "conditions": "E/T ratio=10, 18 hours, dose-dependent", "description": "The T2 cells, pulsed with each peptide in this way, were used as the target cells (T). In addition, the OK-CTL obtained in Example 1 were used as effector cells (E). Target cells amounting to 1×10^4 and effector cells amounting to 1×10^5 were mixed (E/T ratio=10) and incubated for 18 hours. After incubation, 100 μl of supernatant was collected, and IFN-γ was measured by ELISA. The quantity of IFN-γ produced by CTL against T2 cells that were not pulsed with a peptide was taken as the background and subtracted from each measurement value."}, "[4]": {"system": "PBMC of multiple sclerosis patients; T2 cells pulsed with corresponding peptide", "assay": "Peptide recognition in PBMC of multiple sclerosis patients (Example 6): IFN-γ production against peptide-pulsed T2 cells", "assay_type": "cell-based, human", "conditions": "MS Patient Case 7", "description": "as §1\n(§2) Among the 13 types of peptide obtained in Example 3, three peptides, P101 (SEQ ID NO: 1), P102 (SEQ ID NO: 2), and P103 (SEQ ID NO: 3), which were derived from clone 8B6, as well as three peptides, P104 (SEQ ID NO: 4), P105 (SEQ ID NO: 5), and P106 (SEQ ID NO: 6), which were derived from clone 2G2, were examined for their ability to induce CTL from PBMC obtained from multiple sclerosis patients having HLA-A2 as the HLA type and healthy subjects, in the same manner as in Example 5."}, "[5]": {"system": "HLA-A2+ tumor cells", "assay": "Peptide-stimulated PBMC of multiple sclerosis patients: recognition of tumor cells (IFN-γ)", "assay_type": "cell-based, human", "conditions": "PBMC from multiple sclerosis patients", "description": "as §1, §2"}}, "data": [{"sequence": "IMSRDLVPRI (Designed peptide recognized by HLA-A2-restricted cytotoxic T lymphocytes) [P102, peptide derived from clone 8B6]", "values": [{"measurement": "production of IFN-γ from PBMC", "setting": "[1]", "result": "enhanced production of IFN-γ"}, {"measurement": "IgE that specifically recognizes the peptide", "setting": "[2]", "result": "is present"}, {"measurement": "recognition by OK-CTL / production of IFN-γ from OK-CTL", "setting": "[3]", "result": "enhanced production of IFN-γ from OK-CTL"}, {"measurement": "production of IFN-γ from PBMC", "setting": "[4]", "result": "enhanced production of IFN-γ"}, {"measurement": "recognition of tumor cells by peptide-stimulated PBMC", "setting": "[5]", "result": "did not recognize the tumor cells"}]}]}
